Experiment: physchem
Details: pKa values
Experimental: Each 800 g of this solution (equivalent to 50 mg of zoledronic acid) are titrated with • (a) a solution of 0.500 g/100 mL trisodium citrate dihydrate in water for injection • (b) a solution of 0.500 g/100 mL anhydrous sodium acetate in water for injection • (c) a solution of 0.500 g/100 mL disodium tartrate dihydrate in water for injection • (d) a solution of 0.500 g/100 mL trisodium phosphate hexahydrate in water for injection • (e) a solution of 0.400 g/100 mL sodium hydroxide in water for injection
The pH value after each addition of 200 μL of base solution is recorded potentiometrically.

Work on `O=P(O)(O)C(O)(Cn1ccnc1)P(=O)(O)O` [zoledronic acid, 2-(imidazol-1yl)-1-hydroxyethane-1,1-diphosphonic acid] yielded a pKa of 5.9.
